Results: ChEMBL document CHEMBL1201862, “PubChem BioAssay data set” (2004)
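Method: 48-hour compound exposure of cells in 96-well plates, five concentrations, linear interpolation of endpoints. GI50 marks 50% less growth.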 Activity calls are given as the source filed them. Rule as the data show it: active = GI50 up to about 1.1 µM and inactive = higher.

Columns and labels:
Assay in all cases: inhibition of tumour cell growth, NCI panel, 48 h
SF-539 = test system: SF-539
SK-MEL-28 = test system: SK-MEL-28
KM12 = test system: KM12
RPMI-8226 = test system: RPMI-8226
HOP-62 = test system: HOP-62
HCC 2998 = test system: HCC 2998
SK-MEL-2 = test system: SK-MEL-2
HT-29 = test system: HT-29
U-251 = test system: U-251
SK-OV-3 = test system: SK-OV-3
CCRF-CEM = test system: CCRF-CEM
OVCAR-4 = test system: OVCAR-4
CAKI-1 = test system: CAKI-1
NCI-H226 = test system: NCI-H226
COLO 205 = test system: COLO 205
OVCAR-8 = test system: OVCAR-8
IGROV-1 = test system: IGROV-1
UO-31 = test system: UO-31
NCI/ADR-RES = test system: NCI/ADR-RES
SF-295 = test system: SF-295

Measured: GI50

OC1CCSc2ccccc21 (stereo not drawn)
inactive: SF-539 > 100 µM | SK-MEL-28 > 100 µM | KM12 > 100 µM | RPMI-8226 > 100 µM | HOP-62 > 100 µM | HCC 2998 > 100 µM | SK-MEL-2 > 100 µM | HT-29 > 100 µM | U-251 > 100 µM | SK-OV-3 > 100 µM | CCRF-CEM > 100 µM | OVCAR-4 > 100 µM | CAKI-1 > 100 µM | NCI-H226 > 100 µM | COLO 205 > 100 µM | OVCAR-8 > 100 µM | IGROV-1 > 100 µM | UO-31 > 100 µM

Cc1cccc(C(O)c2ccccn2)c1O (stereo not drawn)
inactive: SF-539 > 100 µM | SK-MEL-28 > 100 µM | KM12 > 100 µM | RPMI-8226 > 100 µM | HOP-62 > 100 µM | HCC 2998 > 100 µM | HT-29 > 100 µM | U-251 > 100 µM | CCRF-CEM > 100 µM | NCI/ADR-RES > 100 µM | SF-295 > 100 µM | CAKI-1 > 100 µM | NCI-H226 > 100 µM | COLO 205 > 100 µM | OVCAR-8 > 100 µM | IGROV-1 > 100 µM | UO-31 > 100 µM

Cc1cc(O)c(C(C)C)cc1SC#N
inactive: SF-539 15.6 µM | SK-MEL-28 17.4 µM | KM12 17.6 µM | RPMI-8226 2.16 µM | HOP-62 21 µM | HCC 2998 17.2 µM | SK-MEL-2 18.2 µM | U-251 16.9 µM | SK-OV-3 21 µM | CCRF-CEM 3.51 µM | NCI/ADR-RES 19.2 µM | OVCAR-4 13.5 µM | SF-295 17.3 µM | CAKI-1 15 µM | COLO 205 19.4 µM | OVCAR-8 17.7 µM | IGROV-1 16.9 µM

CN1C[C@H]2[C@@H](C1=O)[C@H](c1ccc([N+](=O)[O-])cc1)ON2C
inactive: SK-MEL-28 > 100 µM | RPMI-8226 > 100 µM | HOP-62 > 100 µM | HCC 2998 > 100 µM | SK-MEL-2 > 100 µM | HT-29 > 100 µM | U-251 > 100 µM | SK-OV-3 > 100 µM | CCRF-CEM > 100 µM | NCI/ADR-RES > 100 µM | OVCAR-4 > 100 µM | SF-295 > 100 µM | CAKI-1 > 100 µM | NCI-H226 > 100 µM | COLO 205 > 100 µM | OVCAR-8 > 100 µM | IGROV-1 > 100 µM | UO-31 > 100 µM

C=CC1OC(CCCOC(=O)C(C)(C)C)O[C@@H]1CC (stereo partly drawn)
inactive: SF-539 > 100 µM | SK-MEL-28 > 100 µM | KM12 > 100 µM | RPMI-8226 > 100 µM | HOP-62 > 100 µM | SK-MEL-2 > 100 µM | HT-29 > 100 µM | U-251 > 100 µM | SK-OV-3 > 100 µM | CCRF-CEM > 100 µM | NCI/ADR-RES > 100 µM | OVCAR-4 > 100 µM | SF-295 > 100 µM | CAKI-1 > 100 µM | NCI-H226 > 100 µM | COLO 205 > 100 µM | OVCAR-8 > 100 µM | IGROV-1 > 100 µM | UO-31 > 100 µM

CCN1c2ccccc2NC(=S)c2c(-c3ccccc3)n[nH]c21
inactive: SF-539 39.4 µM | SK-MEL-28 45.6 µM | KM12 31.7 µM | RPMI-8226 16.1 µM | HCC 2998 3.99 µM | SK-MEL-2 25.3 µM | HT-29 42.7 µM | U-251 20.9 µM | SK-OV-3 34 µM | CCRF-CEM 18.3 µM | NCI/ADR-RES 23.1 µM | OVCAR-4 36.6 µM | SF-295 27.4 µM | CAKI-1 52.8 µM | COLO 205 31.5 µM | OVCAR-8 39.4 µM | IGROV-1 34.1 µM

Cc1ccc(C)c(NC(=O)C(=O)C(C(=O)c2ccc3ccccc3c2)C2OC(=O)c3ccccc32)c1 (stereo not drawn)
inactive: SF-539 4.75 µM | SK-MEL-28 12.4 µM | KM12 14.2 µM | RPMI-8226 22.2 µM | HOP-62 20.2 µM | HCC 2998 15 µM | SK-MEL-2 13.6 µM | HT-29 28.1 µM | U-251 4.19 µM | SK-OV-3 14.3 µM | CCRF-CEM 10.9 µM | OVCAR-4 21.9 µM | SF-295 10.4 µM | CAKI-1 20 µM | NCI-H226 2.44 µM | COLO 205 15.8 µM | OVCAR-8 7.82 µM | IGROV-1 18.2 µM | UO-31 16.5 µM

CC(=O)OC[C@H]1[C@@H]2C(CC[C@]13CO3)OC(=O)CC(C)[C@]2(C)CCc1ccoc1 (stereo partly drawn)
inactive: SF-539 > 100 µM | SK-MEL-28 > 100 µM | KM12 > 100 µM | HOP-62 > 100 µM | HCC 2998 > 100 µM | HT-29 > 100 µM | U-251 > 100 µM | SK-OV-3 > 100 µM | CCRF-CEM > 100 µM | NCI/ADR-RES > 100 µM | OVCAR-4 > 100 µM | SF-295 > 100 µM | CAKI-1 > 100 µM | NCI-H226 > 100 µM | COLO 205 > 100 µM | OVCAR-8 > 100 µM | IGROV-1 > 100 µM | UO-31 > 100 µM
